According to BindingDB's records for PubMed 11160626 (Japan Tobacco, 2001):

How the values were obtained:
Cannabinoid receptor 1 [1] = target: Cannabinoid receptor 1 (Mus musculus, UniProt P47746)
Cannabinoid receptor 2 [2] = target: T1, Cannabinoid receptor 2 (Rattus norvegicus, UniProt Q9QZN9)
T1 sequence (Q9QZN9 whole entry): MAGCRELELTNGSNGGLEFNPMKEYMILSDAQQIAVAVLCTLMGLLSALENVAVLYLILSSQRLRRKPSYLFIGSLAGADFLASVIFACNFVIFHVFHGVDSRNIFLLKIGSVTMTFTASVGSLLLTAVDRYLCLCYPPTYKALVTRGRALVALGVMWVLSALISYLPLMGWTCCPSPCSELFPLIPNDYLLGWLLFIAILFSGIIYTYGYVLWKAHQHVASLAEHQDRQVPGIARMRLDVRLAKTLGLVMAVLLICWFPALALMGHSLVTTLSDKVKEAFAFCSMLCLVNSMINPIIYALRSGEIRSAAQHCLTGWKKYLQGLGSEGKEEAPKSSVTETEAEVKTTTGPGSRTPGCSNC

Cannabinoid receptor 1 [3] = target: Cannabinoid receptor 1 (Rattus norvegicus, UniProt P20272)
Cannabinoid receptor 1 (Rattus norvegicus, UniProt P20272), sequence (P20272 whole entry): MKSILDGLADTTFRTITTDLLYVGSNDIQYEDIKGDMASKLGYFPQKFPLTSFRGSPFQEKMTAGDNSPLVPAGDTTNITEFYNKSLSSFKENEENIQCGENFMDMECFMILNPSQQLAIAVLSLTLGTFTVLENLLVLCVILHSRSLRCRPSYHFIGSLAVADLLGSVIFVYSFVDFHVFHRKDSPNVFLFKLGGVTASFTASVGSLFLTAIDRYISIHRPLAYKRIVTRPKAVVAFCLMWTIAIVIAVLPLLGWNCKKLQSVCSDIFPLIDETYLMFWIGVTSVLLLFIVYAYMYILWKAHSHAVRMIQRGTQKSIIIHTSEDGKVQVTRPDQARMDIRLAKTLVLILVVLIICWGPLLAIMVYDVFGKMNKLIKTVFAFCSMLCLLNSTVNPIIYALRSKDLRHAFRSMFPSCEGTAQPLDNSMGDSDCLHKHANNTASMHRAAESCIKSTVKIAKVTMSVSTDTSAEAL

Cannabinoid receptor 2 [4] = target: Cannabinoid receptor 2 (Mus musculus, UniProt P47936)
Cannabinoid receptor 2 (Mus musculus, UniProt P47936), sequence (P47936 whole entry): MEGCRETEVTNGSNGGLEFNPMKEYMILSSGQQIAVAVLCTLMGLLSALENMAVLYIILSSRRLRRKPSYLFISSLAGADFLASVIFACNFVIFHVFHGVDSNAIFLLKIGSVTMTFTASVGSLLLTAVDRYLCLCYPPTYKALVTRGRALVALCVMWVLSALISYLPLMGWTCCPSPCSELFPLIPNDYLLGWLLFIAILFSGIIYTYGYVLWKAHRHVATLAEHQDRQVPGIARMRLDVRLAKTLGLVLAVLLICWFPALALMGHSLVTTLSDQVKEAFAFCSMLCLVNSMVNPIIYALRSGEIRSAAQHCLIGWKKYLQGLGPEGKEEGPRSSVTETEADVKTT

Cannabinoid receptor 1 (Mus musculus, UniProt P47746), sequence (P47746 whole entry): as the sequence (P20272 whole entry) above, with E95D counted along it

Compound | Ki (Cannabinoid receptor 1 [1]) | Ki (Cannabinoid receptor 2 [2]) | Ki (Cannabinoid receptor 1 [3]) | Ki (Cannabinoid receptor 2 [4])
CCCCCOc1c(OC)ccc2cc(C(=O)NCc3ccc4c(c3)OCO4)c(=O)[nH]c12 [N-(1,3-Benzodioxole-5-ylmethyl)-2-oxo-7-methoxy-8-pentoxy-1,2-dihydro-3-quinolinecarboxamide] | 1060 nM | 0.38 nM | 1050 nM | 1.55 nM
CCCCCc1cc(O)c2c(c1)OC(C)(C)[C@@H]1CCC(C)=CC21 (stereo partly specified) [Tetrahydrocannabinol] | – | – | – | 1.73 nM
Cc1c(C(=O)c2cccc3ccccc23)c2cccc3c2n1[C@H](CN1CCOCC1)CO3 [WIN55212-2] | – | – | – | 0.56 nM
